According to the OligoGym collection:
HELM strings list units from the 5' end as sugar, base in round brackets, then linkage (d deoxyribose, r ribose, m 2'-O-methyl, p phosphodiester). Strings are as the collection lists them; they lack the last nucleoside at the 3' end of the tested compound. [moe] = 2'-O-(2-methoxyethyl) (MOE); [sp] = phosphorothioate linkage; [m5C] = 5-methylcytosine

These substances were tested against UBE3A-ATS (assay: mouse, dose not given). Conditions: ASO.

**Q.** Which 3 h FOB score does the source give for “RNA1{[moe]([m5C])[sp].[moe](G)p.[moe](T)p.[moe](G)p.[moe](A)[sp].d(G)[sp].d([m5C])[sp].d(T)[sp].d(A)[sp].d(T)[sp].d([m5C])[sp].d(T)[sp].d(G)[sp].[moe](T)p.[moe](A)p.[moe]([m5C])[sp].[moe](A)}$$$$ (last 3' nucleoside missing)” here?
**A.** 1.3 score 0-7

**Q.** With “RNA1{[moe]([m5C])[sp].[moe](G)p.[moe](T)p.[moe](G)p.[moe](A)p.[moe](G)[sp].d([m5C])[sp].d(T)[sp].d(A)[sp].d(T)[sp].d([m5C])[sp].d(T)[sp].d(G)[sp].d(T)[sp].[moe](A)p.[moe]([m5C])[sp].[moe](A)}$$$$ (last 3' nucleoside missing)” as the substance, how does the 3 h FOB score read?
**A.** 2 score 0-7

**Q.** How did the 3 h FOB score turn out when “RNA1{[moe]([m5C])[sp].[moe](G)p.[moe](T)p.[moe](G)p.[moe](A)p.[moe](G)p.d([m5C])[sp].d(T)[sp].d(A)[sp].d(T)[sp].d([m5C])[sp].d(T)[sp].d(G)[sp].d(T)[sp].d(A)[sp].d([m5C])[sp].[moe](A)p.[moe](A)[sp].[moe](A)}$$$$ (last 3' nucleoside missing)” was run?
**A.** 1 score 0-7

**Q.** With “RNA1{[moe]([m5C])[sp].[moe](G)p.[moe](T)p.[moe](G)p.[moe](A)p.d(G)[sp].d([m5C])[sp].d(T)[sp].d(A)[sp].d(T)[sp].d([m5C])[sp].d(T)[sp].d(G)[sp].d(T)[sp].d(A)[sp].[moe]([m5C])p.[moe](A)p.[moe](A)[sp].[moe](A)}$$$$ (last 3' nucleoside missing)” as the substance, how does the 3 h FOB score read?
**A.** 3.2 score 0-7

**Q.** How did the 3 h FOB score turn out when “RNA1{[moe]([m5C])[sp].[moe](G)p.[moe](T)p.[moe](G)p.d(A)[sp].d(G)[sp].d([m5C])[sp].d(T)[sp].d(A)[sp].d(T)[sp].d([m5C])[sp].d(T)[sp].d(G)[sp].d(T)[sp].[moe](A)p.[moe]([m5C])p.[moe](A)p.[moe](A)[sp].[moe](A)}$$$$ (last 3' nucleoside missing)” was run?
**A.** 4 score 0-7

**Q.** How did the 3 h FOB score turn out when “RNA1{[moe]([m5C])[sp].[moe](G)p.[moe](T)p.[moe](T)p.[moe](A)p.d(T)[sp].d(T)[sp].d([m5C])[sp].d(A)[sp].d(G)[sp].d(T)[sp].d([m5C])[sp].d(T)[sp].d([m5C])[sp].d(A)[sp].[moe](G)p.[moe](G)p.[moe](G)[sp].[moe](A)}$$$$ (last 3' nucleoside missing)” was run?
**A.** 4.5 score 0-7

**Q.** Which 3 h FOB score does the source give for “RNA1{[moe]([m5C])[sp].[moe](G)p.[moe](T)p.[moe]([m5C])p.[moe](T)p.d(T)[sp].d([m5C])[sp].d([m5C])[sp].d([m5C])[sp].d(G)[sp].d([m5C])[sp].d(A)[sp].d([m5C])[sp].d([m5C])[sp].d(A)[sp].[moe](T)p.[moe](G)p.[moe]([m5C])[sp].[moe](A)}$$$$ (last 3' nucleoside missing)” here?
**A.** 2 score 0-7

**Q.** Which 3 h FOB score does the source give for “RNA1{[moe]([m5C])[sp].[moe](G)p.[moe]([m5C])p.[moe](A)[sp].d(A)[sp].d(T)[sp].d(G)[sp].d(T)[sp].d(A)[sp].d(T)[sp].d([m5C])[sp].d(A)[sp].[moe](G)p.[moe](G)p.[moe]([m5C])p.[moe](A)[sp].[moe](A)}$$$$ (last 3' nucleoside missing)” here?
**A.** 1 score 0-7

**Q.** With “RNA1{[moe]([m5C])[sp].[moe](G)p.[moe]([m5C])p.[moe](A)p.[moe](A)[sp].d(T)[sp].d(G)[sp].d(T)[sp].d(A)[sp].d(T)[sp].d([m5C])[sp].d(A)[sp].d(G)[sp].[moe](G)p.[moe]([m5C])p.[moe](A)[sp].[moe](A)}$$$$ (last 3' nucleoside missing)” as the substance, how does the 3 h FOB score read?
**A.** 2 score 0-7

**Q.** For “RNA1{[moe]([m5C])[sp].[moe](G)p.[moe]([m5C])p.[moe](A)p.[moe](A)p.[moe](T)[sp].d(G)[sp].d(T)[sp].d(A)[sp].d(T)[sp].d([m5C])[sp].d(A)[sp].d(G)[sp].d(G)[sp].[moe]([m5C])p.[moe](A)[sp].[moe](A)}$$$$ (last 3' nucleoside missing)”, which 3 h FOB score is on record?
**A.** 3 score 0-7

**Q.** How did the 3 h FOB score turn out when “RNA1{[moe]([m5C])[sp].[moe](G)p.[moe]([m5C])p.[moe](A)p.[moe](A)p.d(T)[sp].d(G)[sp].d(T)[sp].d(A)[sp].d(T)[sp].d([m5C])[sp].d(A)[sp].d(G)[sp].d(G)[sp].d([m5C])[sp].[moe](A)p.[moe](A)p.[moe]([m5C])[sp].[moe](A)}$$$$ (last 3' nucleoside missing)” was run?
**A.** 4 score 0-7

**Q.** With “RNA1{[moe]([m5C])[sp].[moe](T)p.[moe](A)p.[moe](A)p.[moe](A)p.d(A)[sp].d(T)[sp].d([m5C])[sp].d([m5C])[sp].d(A)[sp].d(T)[sp].d(T)[sp].d(T)[sp].d(G)[sp].d(T)[sp].[moe]([m5C])p.[moe]([m5C])p.[moe](A)[sp].[moe](G)}$$$$ (last 3' nucleoside missing)” as the substance, how does the 3 h FOB score read?
**A.** 3.3 score 0-7

**Q.** How did the 3 h FOB score turn out when “RNA1{[moe]([m5C])[sp].[moe](T)p.[moe](A)p.[moe](A)p.[moe]([m5C])p.d(T)[sp].d(T)[sp].d(T)[sp].d(A)[sp].d(T)[sp].d(A)[sp].d(G)[sp].d(T)[sp].d(G)[sp].d(T)[sp].[moe](G)p.[moe](G)p.[moe](A)[sp].[moe](T)}$$$$ (last 3' nucleoside missing)” was run?
**A.** 5 score 0-7

**Q.** With “RNA1{[moe]([m5C])[sp].[moe](T)p.[moe](A)p.[moe](G)p.[moe](G)p.d([m5C])[sp].d(A)[sp].d(G)[sp].d([m5C])[sp].d(T)[sp].d([m5C])[sp].d(T)[sp].d(T)[sp].d(T)[sp].d(G)[sp].[moe](T)p.[moe](A)p.[moe](G)[sp].[moe](G)}$$$$ (last 3' nucleoside missing)” as the substance, how does the 3 h FOB score read?
**A.** 0.3 score 0-7

**Q.** “RNA1{[moe]([m5C])[sp].[moe](T)p.[moe](A)p.[moe](T)p.[moe]([m5C])p.d(A)[sp].d(A)[sp].d(G)[sp].d(G)[sp].d([m5C])[sp].d(T)[sp].d(G)[sp].d(T)[sp].d(T)[sp].d(A)[sp].[moe](T)p.[moe](T)p.[moe](G)[sp].[moe](G)}$$$$ (last 3' nucleoside missing)” was tested. Which 3 h FOB score did it give?
**A.** 4 score 0-7

**Q.** “RNA1{[moe]([m5C])[sp].[moe](T)p.[moe](A)p.[moe](T)p.[moe]([m5C])p.d(T)[sp].d(G)[sp].d(T)[sp].d(A)[sp].d([m5C])[sp].d(A)[sp].d(A)[sp].d(A)[sp].d(A)[sp].d(T)[sp].[moe](G)p.[moe](G)p.[moe](A)[sp].[moe](A)}$$$$ (last 3' nucleoside missing)” was tested. Which 3 h FOB score did it give?
**A.** 0 score 0-7

**Q.** With “RNA1{[moe]([m5C])[sp].[moe](T)p.[moe](G)p.[moe](A)p.[moe](G)p.d(T)[sp].d([m5C])[sp].d(A)[sp].d(G)[sp].d(T)[sp].d([m5C])[sp].d([m5C])[sp].d(A)[sp].d(A)[sp].d(A)[sp].[moe](T)p.[moe](G)p.[moe](A)[sp].[moe](A)}$$$$ (last 3' nucleoside missing)” as the substance, how does the 3 h FOB score read?
**A.** 0.5 score 0-7

**Q.** With “RNA1{[moe]([m5C])[sp].[moe](T)p.[moe](G)p.[moe](A)p.[moe](T)p.[moe]([m5C])p.d(A)[sp].d([m5C])[sp].d(A)[sp].d(T)[sp].d(T)[sp].d(A)[sp].d([m5C])[sp].d([m5C])[sp].d([m5C])[sp].d(A)[sp].[moe](T)p.[moe]([m5C])[sp].[moe]([m5C])}$$$$ (last 3' nucleoside missing)” as the substance, how does the 3 h FOB score read?
**A.** 0 score 0-7

**Q.** How did the 3 h FOB score turn out when “RNA1{[moe]([m5C])[sp].[moe](T)p.[moe](G)p.[moe](A)p.[moe](T)p.d([m5C])[sp].d(A)[sp].d([m5C])[sp].d(A)[sp].d(T)[sp].d(T)[sp].d(A)[sp].d([m5C])[sp].d([m5C])[sp].d([m5C])[sp].[moe](A)p.[moe](T)p.[moe]([m5C])[sp].[moe]([m5C])}$$$$ (last 3' nucleoside missing)” was run?
**A.** 1 score 0-7
